Laboratory results as given in US8658794B2, “8-methyl-1-phenyl-imidazol[1,5-a]pyrazine compounds as Lck inhibitors and uses thereof” (Merck Sharp & Dohme B.V., priority 2010, dated 2014).

These compounds were tested against T1, N-terminal His6-tagged recombinant full-length human Lck (Homo sapiens, UniProt P06239) (assay: Lck IMAP assay). Settings: ATP 6 μM (KM,ATP), enzyme pre-incubated with compounds for 60 minutes, values given as bins.
T1 construct: N-terminal His6-tagged recombinant full-length human Lck; His6 (N); purchased Millipore
T1 sequence (P06239 whole entry): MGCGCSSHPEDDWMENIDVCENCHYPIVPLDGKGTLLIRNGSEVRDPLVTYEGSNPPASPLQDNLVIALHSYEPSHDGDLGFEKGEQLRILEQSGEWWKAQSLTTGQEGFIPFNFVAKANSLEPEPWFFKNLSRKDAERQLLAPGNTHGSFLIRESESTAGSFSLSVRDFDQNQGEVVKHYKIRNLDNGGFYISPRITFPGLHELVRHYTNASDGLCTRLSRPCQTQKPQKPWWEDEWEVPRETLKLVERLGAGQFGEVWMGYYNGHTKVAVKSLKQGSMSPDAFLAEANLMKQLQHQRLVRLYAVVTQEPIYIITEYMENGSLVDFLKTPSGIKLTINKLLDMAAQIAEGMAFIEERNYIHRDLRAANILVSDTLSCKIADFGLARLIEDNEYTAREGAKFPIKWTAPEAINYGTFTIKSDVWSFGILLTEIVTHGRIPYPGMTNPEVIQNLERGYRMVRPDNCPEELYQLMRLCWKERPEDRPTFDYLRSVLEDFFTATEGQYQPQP
Format: biochemical
Text: Inhibition of kinase activity can be measured using the Immobilized Metal Assay for Phosphochemicals (IMAP) assay. IMAP is a homogeneous fluorescence polarization (FP) assay based on affinity capture of phosphorylated peptide substrates. IMAP uses fluorescein-labeled peptide substrates that, upon phosphorylation by a protein kinase, bind to so-called IMAP nanoparticles, which are derivatized with trivalent metal complexes. Binding causes a change in the rate of the molecular motion of the peptide, and results in an increase in the FP value observed for the fluorescein label attached to the substrate peptide (Gaudet et al. A homogeneous fluorescence polarization assay adaptable for a range of protein serine/threonine and tyrosine kinases. J. Biomol. Screen (2003) 8, 164-175).
Enzyme used was N-terminal His6-tagged recombinant full-length human Lck from Millipore. Phosphorylation substrate was a fluorescein-labeled peptide (5FAM-KVEKIGEGTYGVV—NH2) derived from p34cdc2 from Molecular Devices. Enzymes, substrate and ATP were diluted in Kinase Reaction buffer (10 mM Tris-HCl, 10 mM MgCl2, 0.01% Tween-20, 0.05% NaN3 pH 7.2, 1 mM DTT (dithiotreitol). The final volume at the kinase reaction step of the assay in the 384-well plate was 20 μl. Final amount of enzyme in the reaction was 0.1 U/ml. Enzyme was pre-incubated with compounds diluted in 1% DMSO (dimethylsulfoxide) for 60 minutes at room temperature in the dark. Subsequently, peptide substrate to a final concentration of 100 nM, and ATP to a final concentration of 6 μM were added and the mix was incubated for 120 minutes at room temperature in the dark. IMAP progressive binding buffer (75% 1× buffer A, 25% 1× buffer B with 1:600 Progressive Binding Reagent; Molecular Devices) was added, followed by an incubation step of 60 minutes at room temperature in the dark. Finally, the FP signal was read on an Envision Multilabel reader (Perkin Elmer).
All biochemical assays were run at KM,ATP of the enzyme using non-saturated conditions, meaning that during the incubation time it was assured that the signal increase was linear with time. For all biochemical assays a reference standard was used on each plate.
Ten point serial dilutions using a √10 dilution factor were used for dose response testing of compounds. Starting concentration was 10^-6M for Lck IMAP assays. Dose-response curves were run as two experiments on duplicate plates (N=1; n=2). All data was normalized to percentage effect based on maximum (Max) and minimum (Min) control values. On every 384 assay plate 16 wells were used as minimum wells (wells with ATP, 0% effect) and 16 wells were used as maximum wells (wells without ATP, 100% effect). 16 wells were used for measuring the background signal, obtained from a kinase reaction containing all constituents except the labeled peptide substrate. Percentage effect was plotted against log dilution concentration of compound to obtain sigmoid dose response curves. pIC50 values were calculated using ActivityBase.

IC50 [nM] | SMILES
≤ 10 | COc1cc(-c2nc(N3CCN(C4CCN(C(C)=O)CC4)CC3)n3ccnc(C)c23)ccc1NC(=O)c1cc2c(OC)cccc2n1C [Example 32, N-(4-(3-(4-(1-Acetylpiperidin-4-yl)piperazin-1-yl)-8-methylimidazo[1,5-a]pyrazin-1-yl)-2-methoxyphenyl)-4-methoxy-1-methyl-1H-indole-2-carboxamide]
≤ 10 | COc1cc(-c2nc([C@H]3CC[C@@H](N4CCOCC4)CC3)n3ccnc(C)c23)ccc1NC(=O)c1cc2c(OC)cccc2n1C [Example 26d, 4-methoxy-N-(2-methoxy-4-(8-methyl-3-((cis)-4-morpholinocyclohexyl)imidazo[1,5-a]pyrazin-1-yl)phenyl)-1-methyl-1H-indole-2-carboxamide]
≤ 10 | COc1cc(-c2nc([C@H]3CC[C@H](OC(C)=O)CC3)n3ccnc(C)c23)ccc1NC(=O)c1cc2c(OC)cccc2n1C [Example 5, (Trans)-4-(1-(3-methoxy-4-(4-methoxy-1-methyl-1H-indole-2-carboxamido)phenyl)-8-methylimidazo[1,5-a]pyrazin-3-yl)cyclohexyl acetate]
100 to 1000 | COc1cc(-c2nc(C3CCOCC3)n3ccnc(C)c23)c(F)cc1NC(=O)OC(C)CCCO (stereo not shown) [Example 47, 5-Hydroxypentan-2-yl 5-fluoro-2-methoxy-4-(8-methyl-3-(tetrahydro-2h-pyran-4-yl)imidazo[1,5-a]pyrazin-1-yl)phenylcarbamate]
10 to 100 | COc1cc(-c2nc([C@H]3CC[C@H](OC(=O)NC4CCCC4)CC3)n3ccnc(C)c23)ccc1NC(=O)c1cc2c(OC)cccc2n1C [Example 51, (trans)-4-(1-(3-Methoxy-4-(4-methoxy-1-methyl-1H-indole-2-carboxamido)phenyl)-8-methylimidazo[1,5-a]pyrazin-3-yl)cyclohexyl cyclopentylcarbamate]
≤ 10 | CC[C@H](C)OC(=O)Nc1ccc(-c2nc([C@H]3CC[C@H](N4CCN(C)CC4)CC3)n3ccnc(C)c23)cc1OC [Example 48, (S)-sec-Butyl 2-methoxy-4-(8-methyl-3-((trans)-4-(4-methylpiperazin-1-yl)cyclohexyl)imidazo[1,5-a]pyrazin-1-yl)phenylcarbamate]
≤ 10 | CCC[C@H](C)OC(=O)Nc1ccc(-c2nc([C@H]3CC[C@H](NCCOC)CC3)n3ccnc(C)c23)cc1OC [Example 11, (S)-Pentan-2-yl 2-methoxy-4-(3-((trans)-4-(2-methoxyethylamino)cyclohexyl)-8-methyl-imidazo[1,5-a]pyrazin-1-yl)phenylcarbamate]
≤ 10 | CCC[C@H](C)OC(=O)Nc1ccc(-c2nc([C@H]3CC[C@H](CN(C)C)CC3)n3ccnc(C)c23)cc1OC [Example 65, (S)-Pentan-2-yl 4-(3-((trans)-4-((dimethylamino)methyl)cyclohexyl)-8-methylimidazo[1,5-a]pyrazin-1-yl)-2-methoxyphenylcarbamate]
10 to 100 | COc1cc(-c2nc(C3CCN(C)CC3)n3ccnc(C)c23)ccc1NC(=O)c1cc2c(F)cccc2n1C [Example 45, 4-fluoro-N-(2-methoxy-4-(8-methyl-3-(1-methylpiperidin-4-yl)imidazo[1,5-a]pyrazin-1-yl)phenyl)-1-methyl-1H-indole-2-carboxamide]
≤ 10 | COc1cc(-c2nc(C3CCN(CC(=O)N(C)C)CC3)n3ccnc(C)c23)ccc1NC(=O)c1cc2ccccc2n1C [Example 18, N-(4-(3-(1-(2-(dimethylamino)-2-oxoethyl)piperidin-4-yl)-8-methylimidazo[1,5-a]pyrazin-1-yl)-2-methoxyphenyl)-1-methyl-1H-indole-2-carboxamide]
≤ 10 | COc1cc(-c2nc(N3CCN(C4CCOCC4)CC3)n3ccnc(C)c23)ccc1NC(=O)c1cc2c(OC)cccc2n1C [Example 34, 4-Methoxy-N-(2-methoxy-4-(8-methyl-3-(4-(tetrahydro-2H-pyran-4-yl)piperazin-1-yl)imidazo[1,5-a]pyrazin-1-yl)phenyl)-1-methyl-1H-indole-2-carboxamide]
≤ 10 | COc1cc(-c2nc([C@H]3CC[C@H](N4CC(F)(F)C4)CC3)n3ccnc(C)c23)ccc1NC(=O)c1cc2c(OC)cccc2n1C [Example 9, N-(4-(3-((trans)-4-(3,3-difluoroazetidin-1-yl)cyclohexyl)-8-methylimidazo[1,5-a]pyrazin-1-yl)-2-methoxyphenyl)-4-methoxy-1-methyl-1H-indole-2-carboxamide]
10 to 100 | COc1cc(-c2nc(CO)n3ccnc(C)c23)ccc1NC(=O)c1cc2c(OC)cccc2n1C [Example 14, N-(4-(3-(hydroxymethyl)-8-methylimidazo[1,5-a]pyrazin-1-yl)-2-methoxyphenyl)-4-methoxy-1-methyl-1H-indole-2-carboxamide]
≤ 10 | COc1cc(-c2nc([C@H]3CC[C@H](N4CCOCC4)CC3)n3ccnc(C)c23)ccc1NC(=O)c1cc2ccccc2n1C [Example 12, N-(2-methoxy-4-(8-methyl-3-((trans)-4-morpholinocyclohexyl)imidazo[1,5-a]pyrazin-1-yl)phenyl)-1-methyl-1H-indole-2-carboxamide]
≤ 10 | COc1cc(-c2nc([C@H]3CC[C@H](N(C)C)CC3)n3ccnc(C)c23)ccc1NC(=O)c1cc2c(OC)cccc2n1C [Example 26b, N-(4-(3-((trans)-4-(dimethylamino)cyclohexyl)-8-methylimidazo[1,5-a]pyrazin-1-yl)-2-methoxyphenyl)-4-methoxy-1-methyl-1H-indole-2-carboxamide]
≤ 10 | CCC[C@H](C)OC(=O)Nc1ccc(-c2nc([C@H]3CC[C@@H](N4CC(F)(F)C4)CC3)n3ccnc(C)c23)cc1OC [Example 26g, (S)-pentan-2-yl 4-(3-((cis)-4-(3,3-difluoroazetidin-1-yl)cyclohexyl)-8-methylimidazo[1,5-a]pyrazin-1-yl)-2-methoxyphenylcarbamate]
≤ 10 | COCCN(C)[C@H]1CC[C@@H](c2nc(-c3ccc(NC(=O)c4cc5c(OC)cccc5n4C)c(OC)c3)c3c(C)nccn32)CC1 [Example 26c, 4-methoxy-N-(2-methoxy-4-(3-((cis)-4-((2-methoxyethyl)(methyl)amino)cyclo-hexyl)-8-methylimidazo[1,5-a]pyrazin-1-yl)phenyl)-1-methyl-1H-indole-2-carboxamide]
≤ 10 | COc1cc(-c2nc(C3CCN(C(=O)CN(C)C)CC3)n3ccnc(C)c23)ccc1NC(=O)c1cc2ccccc2n1C [Example 19, N-(4-(3-(1-(2-(dimethylamino)acetyl)piperidin-4-yl)-8-methylimidazo[1,5-a]pyrazin-1-yl)-2-methoxyphenyl)-1-methyl-1H-indole-2-carboxamide]
≤ 10 | COc1cc(-c2nc(N3CCN(C)CC3)n3ccnc(C)c23)ccc1NC(=O)c1cc2ccccc2n1C [Example 23, N-(2-methoxy-4-(8-methyl-3-(4-methylpiperazin-1-yl)imidazo[1,5-a]pyrazin-1-yl)phenyl)-1-methyl-1H-indole-2-carboxamide]
≤ 10 | CCC[C@H](C)OC(=O)Nc1ccc(-c2nc([C@H]3CC[C@H](N4CCN(C(C)=O)CC4)CC3)n3ccnc(C)c23)cc1OC [Example 33d, (S)-pentan-2-yl 4-(3-((trans)-4-(4-acetylpiperazin-1-yl)cyclohexyl)-8-methylimidazo[1,5-a]pyrazin-1-yl)-2-methoxyphenylcarbamate]
≤ 10 | CCC[C@H](C)OC(=O)Nc1ccc(-c2nc([C@@H]3CCN(C(=O)CN(C)C)C3)n3ccnc(C)c23)cc1OC [Example 4, (S)-pentan-2-yl 4-(3-((R)-1-(2-(dimethylamino)acetyl)pyrrolidin-3-yl)-8-methylimidazo[1,5-a]pyrazin-1-yl)-2-methoxyphenylcarbamate]
≤ 10 | CCC[C@H](C)OC(=O)Nc1ccc(-c2nc([C@H]3CC[C@H](N(CCOC)C(C)=O)CC3)n3ccnc(C)c23)cc1OC [Example 29, (S)-Pentan-2-yl 2-methoxy-4-(3-((trans)-4-(N-(2-methoxyethyl)acetamido)cyclohexyl)-8-methylimidazo[1,5-a]pyrazin-1-yl)phenylcarbamate]
